The results in this text go back to US6410735B1, “1-(4-arylpiperazin-1-y1)-ω-[N-(α,ω-dicarboximido)]-alkanes useful as uro-selective α1-adrenoceptor blockers” (Ranbaxy Laboratories Limited, priority 1997, dated 2002).

Holding throughout (type): cell-based
One test deals with T1, Angiotensin II receptor (Oryctolagus cuniculus, UniProt P34976).
T1 construct: from tissue; host or cells: rabbit aorta
T1 sequence (P34976 1-359): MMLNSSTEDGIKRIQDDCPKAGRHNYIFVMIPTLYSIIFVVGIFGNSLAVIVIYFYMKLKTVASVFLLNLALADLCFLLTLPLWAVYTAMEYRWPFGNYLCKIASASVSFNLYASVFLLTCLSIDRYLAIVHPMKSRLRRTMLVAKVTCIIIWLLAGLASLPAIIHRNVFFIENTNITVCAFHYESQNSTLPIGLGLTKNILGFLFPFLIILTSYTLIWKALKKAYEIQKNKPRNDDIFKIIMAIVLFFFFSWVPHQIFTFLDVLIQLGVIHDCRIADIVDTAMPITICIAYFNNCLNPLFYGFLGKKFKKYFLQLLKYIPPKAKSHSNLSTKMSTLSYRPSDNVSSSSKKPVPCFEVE
Put plainly: Receptor selectivity, rabbit aorta. The conditions noted are these: read-out: pKB Angiotensin II (converted). On the procedure: (§1) Selectivity of action of the present compounds was tested against a range of different receptors, e.g., β1- and α2-adrenergic, muscarinic cholinergic, serotoninergic (5-HT2A), histaminergic (H1), angiotensin II, endothelin (ETA and B,), as well as calcium and potassium channels. Rat aorta was used to study the effect of the compounds on 5-HT2A, ETA, calcium and potassium channels. Angiotensin II receptor antagonistic activity was studied in rabbit aorta. Muscarinic cholinergic receptor and ETB receptor antagonistic activity was studied in rat trachea, while guinea pig trachea was used to study H1 receptor antagonistic activity. Electrically stimulated rat vas deferens was used to investigate the effect of α2-adrenoceptors, while β1-adrenoceptor antagonistic activity was studied using electrically stimulated rat ventricular strips. Results of this selectivity study is shown in (Table 2).

A further test concerns the target T2, ETB receptor (Rattus norvegicus, UniProt P21451).
T2 construct: from tissue; host or cells: rat trachea
T2 sequence (P21451 27-442): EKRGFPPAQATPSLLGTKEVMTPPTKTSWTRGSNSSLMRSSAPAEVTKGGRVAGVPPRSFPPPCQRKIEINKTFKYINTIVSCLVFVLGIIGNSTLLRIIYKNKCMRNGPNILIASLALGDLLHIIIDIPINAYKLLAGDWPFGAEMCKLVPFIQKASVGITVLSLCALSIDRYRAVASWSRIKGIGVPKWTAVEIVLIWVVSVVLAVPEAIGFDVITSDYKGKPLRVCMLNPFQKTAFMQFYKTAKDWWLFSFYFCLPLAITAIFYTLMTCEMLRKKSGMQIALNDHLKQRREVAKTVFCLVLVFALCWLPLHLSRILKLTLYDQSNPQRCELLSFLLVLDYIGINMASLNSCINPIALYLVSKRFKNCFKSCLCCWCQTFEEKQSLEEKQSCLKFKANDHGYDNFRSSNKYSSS
Kind of test: Receptor selectivity, rat trachea. The conditions noted are these: read-out: pKB ETB (converted). The method, then: as §1

A further test has as its target T3, ETA (Rattus norvegicus, UniProt P26684).
T3 construct: from tissue; host or cells: rat aorta
T3 sequence (P26684 21-426): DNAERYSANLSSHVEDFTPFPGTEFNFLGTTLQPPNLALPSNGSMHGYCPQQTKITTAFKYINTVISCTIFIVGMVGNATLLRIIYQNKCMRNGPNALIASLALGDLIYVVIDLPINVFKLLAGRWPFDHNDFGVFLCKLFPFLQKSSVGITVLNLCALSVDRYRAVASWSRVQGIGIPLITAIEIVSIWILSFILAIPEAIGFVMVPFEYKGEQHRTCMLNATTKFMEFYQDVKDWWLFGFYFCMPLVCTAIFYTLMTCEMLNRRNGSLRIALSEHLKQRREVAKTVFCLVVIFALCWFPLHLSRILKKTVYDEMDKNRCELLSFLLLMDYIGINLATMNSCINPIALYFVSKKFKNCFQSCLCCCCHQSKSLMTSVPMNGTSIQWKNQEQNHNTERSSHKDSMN
Put plainly: Receptor selectivity, rat aorta. The conditions noted are these: read-out: pKB ETA (converted). The method, then:
as §1

For the molecule `COc1ccccc1N1CCN(CCCCN2C(=O)CCC2=O)CC1` [Compound 9, 1-[4-(2-Methoxyphenyl)piperazin-1-yl]-4-(2,5-dioxopyrrolidin-1-yl)butane], the Kb is 2.51 µM on Angiotensin II receptor, 3.98 µM on ETB receptor and 50.1 µM on ETA.
The corresponding values for `COc1ccccc1N1CCN(CCCN2C(=O)CCCC2=O)CC1` [Compound 13, 1-[4-(2-Methoxyphenyl)piperazin-1-yl]-3-(2,6-dioxopiperidin-1-yl)propane] are 5.01 µM, 12.6 µM and 50.1 µM.
